Laboratory results as given in PMC9666555, “Genuine selective caspase-2 inhibition with new irreversible small peptidomimetics” (Cell Death & Disease, 2022).
“And” between values parts separate entries of the source, which are not always exact repeats. Equal entries are not always repeated. Where two headings read alike, the source gives them in different places. Residues, ends and D or L forms follow the SMILES beside them. *: point of attachment. X1 = O=C(O)CC(N*)C(=O)COc1c(F)cccc1F; Quinaldoyl = O=C(c1ccc2ccccc2n1)*; Cbz = O=C(OCc1ccccc1)*; CH2F = FC*

Key:
HeLa cells = assay: Vincristine-induced HeLa cell death (propidium iodide, flow cytometry); format: cell-based, human; conditions: 1 h pretreatment, 20 nM vincristine 44 h; for effect against vincristine-induced cell death: indicated doses; for inhibition of vincristine-induced cell death: inhibitor 30 µM
Description: HeLa cells (obtained from ATCC) were cultured in Dulbecco’s Modified Eagle Medium (DMEM, High Glucose, GlutaMAX™, Pyruvate) supplemented with antibiotics and 10% fetal calf serum (FCS) (Gibco, Life Technologies) and maintained in T75 Flasks at 1 × 10^6 cells per flask. Twenty-four hours before treatments, HeLa cells were transferred to 6-well plates (8 × 10^4 cells/well). The lymphoblastoid cell line Molt4cl8 was a gift from Dr. Bernard Krust (Inserm, University Paris 5) and was cultured in RPMI 1640 Glutamax medium supplemented with Hepes, antibiotics, and 10% FCS. HEK293 cells were obtained from ATCC (CRL-1573) and cultured in DMEM with Glutamax and 25 mM glucose (Life Technologies) supplemented with 10% FCS and antibiotics. For cell death induction, the following agents were added to cell cultures: Vincristine (Sigma) and Panobistat (LBH589; Selleck). Cell death was analyzed using fluorescence microscopy (Axio-observer Z1, Zeiss; equipped with CCD camera CoolsnapHQ2, Ropert Scientific) and cytofluorometry (MACSQuant® VYB; Miltenyi Biotec, Bergisch Gladbach, Germany) after labeling with propidium iodide (1 µg/mL; 10 min; 37 °C; Life Technologies) and Hoechst 33342 (1 µg/mL; 5 min; RT; Sigma).
Fig. 2 q33 and h33 are protective against the cytocidal effect of Vincristine. a Vincristine induces HeLa cell death. Cells were incubated for 44 h at 37 °C with 20 nM Vincristine (VCR), then incubated with propidium iodide at 2 μg/mL for 10 min and analyzed by flow cytometry to quantify plasma membrane permeabilization. Histograms show fluorescence intensity detected by flow cytometry (one representative experiment) in the presence (VCR) or Absence (Co.) of Vincristine. % of propidium iodide-positive cells are indicated for both conditions. b Dose–response of Vincristine-induced cell death. HeLa cells were incubated and treated as in (a) with the indicated doses of Vincristine (VCR) and analyzed by flow cytometry. […] Representative fluorescence microscopy micrographs of cells treated for 44 h with 20 nM vincristine (VCR) or not (Co.) and stained with Hoechst 33342. Vincristine induces progressive nuclear changes with first condensed nuclei (arrows) and then apoptotic bodies (dashed arrow). d Broad-spectrum irreversible caspase inhibitors prevent vincristine-induced cell death. HeLa cells were pretreated for 1 hr with the indicated broad-spectrum irreversible caspases inhibitors (z-VAD(OMe)-fmk at 30 μM, Q-VD-OPh 30 μM, Emricasan 10 μM, or the negative control Q-VE-OPh 30 μM), then treated with vincristine as in panel (a), and analyzed by flow cytometry. Histograms show the mean ± SD of 3 independent experiments (***p value < 0.001). e Effect of the reversible Caspase-2 inhibitors q33 and h33 against vincristine-induced cell death. HeLa cells were pretreated for 1 h with the indicated doses of q33 or h33, then treated with vincristine as in panel a, and analyzed by flow cytometry. Histograms show the mean ± SD of three independent experiments (*p value < 0.1). TEXT PRINTED IN THE PICTURE: (a) VCR: 39,5 % DOUBTS OF THE COPYIST ABOUT THIS PICTURE: Panel a: the picture prints no measure beside "39,5 %" and "4.1%". I assigned 39,5 % to VCR only because it stands by the grey VCR peak. / Panel a: "4.1%" seems to belong to the untreated control (Co.). That is not a substance, so it is left out.
Fig. 5 LJ2 inhibits cell death induced by microtubule destabilization and hydroxamic acid-based deacetylase (HDAC) inhibition. a Effect of the irreversible Caspase-2 inhibitors LJ2 against vincristine-induced cell death. HeLa cells were pretreated for 1 h with the indicated doses of LJ2, Q-VD-OPh, or Q-LETD-OPh, then treated with vincristine (VCR) as in Fig. 2, then incubated with propidium iodide at 2 μg/mL for 10 min and analyzed by flow cytometry. Histogram data are mean ± SD (n = 3, *p value < 0.01). b Effect of Caspases-inhibitors against Panobistat (LBH589)-induced cell death. […]

[1] = biological target: T1, human active recombinant Caspase-3 (Homo sapiens, UniProt P42574); assay: In vitro caspase activity and inhibition assay (IC50), Caspase-3; format: biochemical
T1 sequence (P42574 29-175 limits assumed): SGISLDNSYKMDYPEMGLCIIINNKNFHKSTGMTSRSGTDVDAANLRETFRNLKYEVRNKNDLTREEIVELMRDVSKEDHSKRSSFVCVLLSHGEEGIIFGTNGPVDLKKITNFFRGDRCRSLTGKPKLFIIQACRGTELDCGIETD
T1 sequence (P42574 176-277 limits assumed): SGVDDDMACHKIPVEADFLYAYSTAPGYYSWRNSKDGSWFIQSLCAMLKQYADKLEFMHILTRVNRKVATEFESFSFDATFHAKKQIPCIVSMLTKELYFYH
Description: The human active recombinant Caspase-3 (#707-C3) was purchased from R&D Systems (Minneapolis, USA). […] Stock solutions were stored at −80 °C. […] Caspase inhibitors were solubilized in DMSO at 10 mM and stored at −80 °C.
Initial velocity (V0) was determined from the linear portion of the progress curve. The composition of the activity buffer was: 20 mM HEPES, pH 7.4; 0.1% CHAPS, 5 mM DTT, 2 mM EDTA; 800 mM sodium succinate for Caspase-2 (0.2 nM) with 25 µM of Ac-VDVAD-7-amino-3-methylcoumarin (AMC) and 20 mM HEPES, pH 7.4; 0.1% CHAPS, 5 mM DTT, 2 mM EDTA; supplemented with 1 mg/mL of stabilizing agent bovine serum albumin (BSA) for Caspase-3 (0.1 nM) with 10 μM of Ac-DEVD-AMC. Compounds (0.001–100 µM) were tested in duplicate for each inhibitor concentration to detect their inhibitory potential. Enzymes and compounds were incubated for 30 min before initiating enzymatic reaction by adding substrate. Initial rates determined in control experiments (V0) were considered as 100% of the caspase activity; initial rates that were below 100% in the presence of tested compound (Vi) were considered as inhibition. The inhibitory activity of compounds was expressed as IC50 (Inhibitor concentration giving 50% inhibition). The values of IC50 were calculated by fitting the experimental data using Mars data Analysis 2.0 and KaleidaGraph software.1 %Inhibition=1001−Vi/V0=100I0/IC50+I0

[2] = biological target: T2, human active recombinant caspase-2 (Homo sapiens, UniProt P42575); assay: In vitro caspase activity and inhibition assay (IC50), Caspase-2; format: biochemical
T2 sequence (P42575 170-325 limits assumed): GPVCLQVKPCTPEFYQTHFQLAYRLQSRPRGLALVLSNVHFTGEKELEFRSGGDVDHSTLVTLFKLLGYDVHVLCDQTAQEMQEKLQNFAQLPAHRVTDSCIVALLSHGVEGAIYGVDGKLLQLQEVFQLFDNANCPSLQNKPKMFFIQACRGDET
T2 sequence (P42575 348-452 limits assumed): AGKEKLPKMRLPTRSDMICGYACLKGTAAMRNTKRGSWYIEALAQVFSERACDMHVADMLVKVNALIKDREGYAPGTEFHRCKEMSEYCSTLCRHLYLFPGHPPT
Description: Stock solutions were stored at −80 °C.

recombinant human Casp3 = biological target: T3, recombinant human Casp3 (Homo sapiens, UniProt P42574); assay: Enzyme mechanistic studies (Ki, k3, k3/KI), Caspase-3; format: biochemical
T3 sequence (P42574 29-175 limits assumed): T1 sequence (P42574 29-175 limits assumed)
T3 sequence (P42574 176-277 limits assumed): T1 sequence (P42574 176-277 limits assumed)
Description: (§1) For reversible inhibitors, the mechanisms of inhibition were determined by varying substrate and inhibitor concentrations and using Lineweaver−Burk representations to determine the inhibition constants Ki of competitive inhibitors (Ki = [E][I]/[EI]). For suicide inhibitors, inactivation can be represented by the minimum kinetic scheme (Eq. 2), where E and I are the free forms of enzyme and inhibitor, E * I a kinetic chimera of the Michaelis complex and E − I the covalent complex (inactivated enzyme).2 E+I⇄KIE*I→k3E−I
(§2) KI and k3 are the kinetic constants characterizing the inactivation process and the k3/KI ratio is an index of the inhibitory potency. The first-order rate constant, k3, and the apparent dissociation constant, KI, were determined for Caspase-2 and -3 using the progress curve method. Briefly, the enzyme activities were measured continuously for 120 min. To determine the kinetic parameters, progress curves were obtained at several inhibition concentrations using fixed substrate concentration. The product released for each inhibitor concentration was plotted versus the time following Eq. 3 where the constant π depended on [I]’, a modified inhibitor concentration due to substrate competition, according to Eq. 4. [I]’ is defined by Eq. 5, where KM was Michaelis constant for the enzymatic hydrolysis of the appropriate fluorogenic substrate. The ratio k3/KI was obtained by fitting the experimental data to the equations (F.U., fluorescence unit):3 F.U.=∫0tvidt+F.U0−vo×e^−π×t/π+F.U.0 4 π=k3×[I]^′/KI+[I]^′ 5 [I]^′=[I]/1+S/KM
Linear and nonlinear regression fits of the experimental data to the equations were performed with KaleidaGraph software.

recombinant human Casp2 = biological target: T4, recombinant human Casp2 (Homo sapiens, UniProt P42575); assay: Enzyme mechanistic studies (Ki, k3, k3/KI), Caspase-2; format: biochemical; conditions: for Ki ratio (Casp3/Casp2): reversible inhibitors
T4 sequence (P42575 170-325 limits assumed): T2 sequence (P42575 170-325 limits assumed)
T4 sequence (P42575 348-452 limits assumed): T2 sequence (P42575 348-452 limits assumed)
Description: as §1, §2
Linear and nonlinear regression fits of the experimental data to the equations were performed with KaleidaGraph software. The experimental conditions were [Caspase-2]0 = 0.2 nM, [Ac-VDVAD-AMC]0 = 25 µM and [Caspase-3]0 = 0.1 nM, [Ac-DEVD-AMC]0 = 10 µM; [I]0 = 0–100 µM.

[3] = test system: Swiss mice hippocampal neurons; assay: Aβ oligomer-induced dendritic spine loss in hippocampal primary cultures; format: cell-based, mouse; conditions: 100 nM, 6 h of exposure
Description: For the monoculture model (MBBT4 devices), 20 × 10^3 hippocampal neurons were seeded in each chamber. For the compartmentalized coculture model (neuronal diode in MBBT5 devices), 40 × 10^3 cortical cells and 15 × 10^3 hippocampal cells were seeded in each input chamber and output chamber, respectively. The culture medium was renewed every 5 days. Microfluidic chips were placed in Petri dishes containing 0.1% EDTA (Sigma) and incubated at 37 °C in a 5% CO2 atmosphere. In the neuronal diodes, cortical axons entered the microchannels and reached the hippocampi chamber in around 4–5 days. In both the monoculture and coculture systems, cells were cultured for 3 weeks to allow high dendrites and synapse density and intense electrical firing.
Cells were treated with caspase inhibitors and/or Aβ1–42 at 20 days in vitro. For the hippocampal monocultures, the culture medium was removed and replaced by fresh medium optionally containing 10 nM Aβ1–42 oligomers or monomers, with or without caspase inhibitors. After 6 h, cells were fixed, permeabilized, and subjected to immunolabelling. For cortico-hippocampal compartmentalized cocultures, the medium of the input chamber (cortical) was replaced by fresh medium optionally containing 100 nM Aβ1–42 oligomers or monomers, whereas the medium of the output (hippocampal) chamber was replaced by fresh medium optionally containing, or not, caspases inhibitors. […]
Immunostaining was performed directly in microfluidic chambers as described [38]. […] Images were analyzed using ImageJ software (NIH, Bethesda, MD, USA).
Synaptic disconnection was assessed as described [39] with slight modifications. Briefly, in hippocampal monocultures, synaptic disconnection was assessed through fluorescence microscopy by counting phalloidin clusters affixed to MAP2 and Bassoon. In cortico-hippocampal compartmentalized cocultures, synaptic disconnection was assessed by counting α-Synuclein presynaptic clusters affixed to MAP2-positive hippocampal dendrites. […] The images were similarly processed with ImageJ software before being used for quantification: the brightness/contrast of all control images were optimized manually to eliminate the background and to maximize the signal. The means of the minimum and maximum intensities were then calculated in the control condition and these settings were applied to all images. The brightness/contrast of all images was optimized manually to eliminate the background and maximize the intensity of the signal. α-synuclein/ MAP2 and Phalloidin/MAP2/Bassoon merges were then used for quantification. The number of spines was determined by counting individual clusters along ten dendritic regions (100 µm length each) in three independent experiments for every epitope. Only synapses detected on or near the neurites were included for analysis.

[4] = test system: Casp2-S1P-SREBP2 activation pathway in HEK 293 cells; assay: Casp2-dependent S1P cleavage and SREBP2 activation in transfected HEK 293 cells (WB); conditions: 10 µM, 16 h
Description: To test SREBP processing, HEK 293 (ATCC® CRL-1573) cells were plated at a density of 0.5 × 10^5 per well (6-well plates). The next day, 1 μg of each cDNAs were transfected using lipofectamine 3000 (Thermo Fisher Scientific, MA) according to the manufacturer’s instruction. cDNAs used were empty vector (EV), Casp2-HA, PIDD-Flag, RAIDD-His, Myc-S1P, and V5-SREBP2. After 4 h, cells were incubated in DMEM/F12 medium supplemented with indicated Casp2 inhibitors (10 μM) for 16 h. Whole-cell lysates were prepared in lysate buffer (150 mM Tris-HCl, pH 7.4, 10% sodium-deoxycholate, 100 mM NaCl, 100 mM EDTA, 100 mM PMSF, 200 mM NaF, 100 mM Na3VO4, and a mixture of protease inhibitors). […] Equal quantities of proteins were subjected to immunoblot (WB) analysis with anti-Flag (#F7425 Sigma-Aldrich), anti-HA (#1867431, Roche), anti-Casp2 (#ALX-804-356, 11B4, Enzo Life Sciences), anti-V5 monoclonal antibody (#13202, Cell Signaling Technology), anti-Casp3 (#9661, #9662, #9664, Cell Signaling Technologies), and anti-HSP90 (#sc-101494, Santa Cruz Technologies).
HEK 293 cells were transfected with indicated plasmids in order to overexpress SREBP2, S1P, RAIDD, PIDD1, and Casp-2. […] HEK 293 cells were transfected with the indicated plasmids. […] Then, whole cell extracts (WCL) were prepared and subjected to WB analysis to detect Casp2 (through HA tag), RAIDD (through 6HIS tag), and PIDD1, PIDD1-C, PIDD1-CC (through Flag tag).

[5] = reversible competitive inhibitors, Lineweaver-Burk, read-out: Enzyme assays Casp3 Ki (converted)
[6] = reversible competitive inhibitors, Lineweaver-Burk, read-out: Enzyme assays Casp2 Ki
[7] = 30 min preincubation, 0.1 nM Caspase-3, 10 µM Ac-DEVD-AMC, read-out: Enzyme assays Casp3 IC50 (converted)
[8] = 30 min preincubation, 0.2 nM Caspase-2, 25 µM Ac-VDVAD-AMC, read-out: Enzyme assays Casp2 IC50
[9] = irreversible inhibitors, progress curve method

Q-LETD-OPh
effect against vincristine-induced cell death (HeLa cells): no effect

CC(=O)NC(C(=O)NC(CC(=O)O)C(=O)NC(C(=O)N1CCC(c2ccccc2)C1C(=O)NC1CC(=O)OC1O)C(C)C)C(C)C (stereo not shown) [k33, reference compound]
IC50 [1]: 1960 nM | IC50 [2]: 178 nM | Ki (recombinant human Casp3; [5]): 2770 nM | Ki (recombinant human Casp2; [6]): 90.5 nM

CC(=O)N[C@H](C(=O)N[C@@H](CC(=O)O)C(=O)N[C@H](C(=O)N1CC[C@H](CC(C)(C)C)[C@@H]1C(=O)N[C@H]1CC(=O)OC1O)C(C)C)C(C)C (stereo partly shown) [h33, reference compound]
IC50 [1, 7]: 4570 nM | IC50 [2, 8]: 11 nM | effect against vincristine-induced cell death (HeLa cells): showed cytoprotective effect | Ki (recombinant human Casp3; [5]): 6510 nM | Ki (recombinant human Casp2; [6]): 10.9 nM | Ki ratio (Casp3/Casp2) (recombinant human Casp2): 597

Aβ1–42 oligomers: oligomers of human β-amyloid1-42 peptide [reference compound]
decrease in spine density [3]: 50%

CC(C)[C@H](NC(=O)c1ccc2ccccc2n1)C(=O)N[C@@H](CC(=O)O)C(=O)N[C@H](C(=O)N[C@@H](C)C(=O)NC(CC(=O)O)C(=O)COc1c(F)cccc1F)C(C)C (stereo partly shown) [Δ2Me-TRP601, Quinolin-2-carbonyl-VDVAD-CH2-O(2,6F2)Ph, reference compound] (Quinaldoyl-VDVA-X1)
IC50 [1]: 0.31 ± 0.01 nM | Casp3 k3 (recombinant human Casp3; [9]): 1,85 ms^−1 | Casp3 k3/KI (recombinant human Casp3; [9]): 1 613 405 M^−1 s^−1 | KI (inactivation) (recombinant human Casp3; [9]): 1.17 nM | Casp2 k3 (recombinant human Casp2; [9]): 8,08 ms^−1 | Casp2 k3/KI (recombinant human Casp2; [9]): ~ 1,586,020 M^−1 s^−1 and 1 586 020 M^−1 s^−1 | KI (inactivation) (recombinant human Casp2; [9]): 5.49 nM | S1P cleavage [4]: abolished | SREBP2 activation [4]: abolished | impact on RAIDD, PIDD1, and Casp2 expression [4]: no significant impact

CC(=O)N[C@H](C(=O)N[C@@H](CC(=O)O)C(=O)N[C@H](C(=O)N1CC[C@@H](OC(C)C)[C@@H]1C(=O)N[C@H]1CC(=O)OC1O)C(C)C)C(C)C (stereo partly shown) [c33, reference compound]
IC50 [1]: 6720 nM | IC50 [2]: 271 nM | Ki (recombinant human Casp3; [5]): 2440 nM | Ki (recombinant human Casp2; [6]): 122 nM

COC(=O)C[C@H](NC(=O)[C@H](C)NC(=O)[C@@H](NC(=O)OCc1ccccc1)C(C)C)C(=O)CF [z-VAD(Ome)-fmk] (Cbz-Val-Ala-Asp(OMe)-CH2F)
inhibition of vincristine-induced cell death (HeLa cells): more than 80%

CC(C)[C@H](NC(=O)c1ccc2ccccc2n1)C(=O)N[C@@H](CC(=O)O)C(=O)N[C@H](C(=O)N1CC[C@H](CC(C)(C)C)[C@H]1C(=O)NC(CC(=O)O)C(=O)COc1c(F)cccc1F)C(C)C (stereo partly shown) [LJ3b]
Casp3 k3 (recombinant human Casp3; [9]): 0.8 ± 6 × 10^−5 ms^−1 | Casp3 k3/KI (recombinant human Casp3; [9]): 9 M⁻¹ s⁻¹ | Ki (recombinant human Casp3; irreversible inhibitors, progress curve method, read-out: Casp3 KI): 84200 nM | k3/Ki ratio against Casp2, times lower than the one of the a isomer (LJ2a or LJ3a) (recombinant human Casp2): more than 2000 times | Casp2 k3/KI (recombinant human Casp2; [9]): 823 M⁻¹ s⁻¹ | Ki (recombinant human Casp2; irreversible inhibitors, progress curve method, read-out: Casp2 KI): 8540 ± 300 nM

CC(C)C(NC(=O)c1ccc2ccccc2n1)C(=O)NC(CCC(=O)O)C(=O)COc1c(F)cccc1F (stereo not shown) [Q-VE-OPh]
inhibition of vincristine-induced cell death (HeLa cells): not

CC(=O)N[C@H](C(=O)N[C@@H](CC(=O)O)C(=O)N[C@H](C(=O)N1CCc2ccc(C)cc2[C@@H]1C(=O)N[C@H]1CC(=O)OC1O)C(C)C)C(C)C (stereo partly shown) [q33, reference compound]
IC50 [1, 7]: 2540 nM | IC50 [2, 8]: 15 nM | effect against vincristine-induced cell death (HeLa cells): showed cytoprotective effect | Ki (recombinant human Casp3; [5]): 2370 nM | Ki (recombinant human Casp2; [6]): 24 nM | Ki ratio (Casp3/Casp2) (recombinant human Casp2): 94.5
